Measurements: ChEMBL document CHEMBL1152705, “Synthesis and promotion angiogenesis effect of chrysin derivatives coupled to NO donors” (Bioorg Med Chem Lett, 2009)
The source made the active and inactive calls. The calls are words filed in the database; no cut-off is given here.

Experiments:
[1] = test system: Chorioallantoic membrane; test: Angiogenic activity in chick embryo chorioallantoic membrane at 10 uL/egg after 2 days; type: functional, tissue-based; conditions: Gallus gallus
[2] = species on record: Homo sapiens; test: Angiogenic activity in HUVEC12 assessed as induction of cell proliferation at 10 uM after 24 hrs by MTT assay; type: functional

Row | Structure (SMILES) | Activity [1] | Activity [2]
1 | O=c1cc(-c2ccccc2)oc2cc(OCCO[N+](=O)[O-])cc(O)c12 | Active | Active
2 | O=c1cc(-c2ccccc2)oc2cc(OCCCCO[N+](=O)[O-])cc(O)c12 | Active | Active
3 | O=c1cc(-c2ccccc2)oc2cc(O)cc(O)c12 | – | Active
4 | O=c1cc(-c2ccccc2)oc2cc(OCCCCCCO[N+](=O)[O-])cc(O)c12 | Active | Active
